Source: patent publication US7547804B2, “Compounds, compositions, and methods employing same” (Myriad Genetics, Inc., priority 2002, dated 2009)

test system: LNCaP cell lines; experiment: WST-1 Cell Proliferation and Viability Assay; assay type: cell-based; conditions: Homo sapiens; LNCaP cells, compound incubation 18-72 hours
Experimental: WST-1 Cell Proliferation and Viability Assay
Cell proliferation and cell viability was assessed using the tetrazolium salt WST-1 (Roche Applied Science, Indianapolis Ind.). The assay is based on the cleavage of WST-1 (light red) by mitochondrial dehydrogenase causing the formation of formazan (dark red), which can be measured on an optical density (O.D.) reader. LNCaP cell lines were plated in 96 well tissue culture plates (Corning Costar, N.Y.) at a density of 5000 cells/well in 150 μl complete media phenol-red free (RPMI-1640 [Invitrogen, Carlsbad Calif.] and 10% fetal calf serum). This plate is termed the assay plate. After the cells are plated, they are then incubated overnight at 37 degrees Celsius in a humidified chamber containing 5% CO2 (incubator).
Compounds are added to the assay plate in 50 μl of complete media and 0.4% DMSO (v:v) making the final DMSO concentration 0.1%. The assay plate is then returned to the incubator for 18-72 hours. WST-1 reagent is then added (20 μl/well) and the plate is placed on an ELISA plate shaker for 30 minutes at room temperature. Plates are then transferred back to the incubator for an additional 3 hours. Plates are then read on a 96 well plate O.D. reader at A490-A650.

Row | EC50 [µM] | SMILES
1 | 1 | O=C(Nc1cc(Cl)ccc1OCCc1ccccc1Cl)c1cc(Cl)ccc1O [Compound 110]
2 | 1 | O=C(Nc1cc(Cl)ccc1OCCc1cccc(F)c1)c1cc(Cl)ccc1O [Compound 111]
3 | 2 | COc1cccc(CCOc2ccc(Cl)cc2NC(=O)c2cc(Cl)ccc2O)c1 [Compound 112]
4 | 8 | Cc1cccc(NC(=O)c2cc(Cl)ccc2O)c1 [Compound 113]
5 | 10 | Cc1ccc(NC(=O)c2cc(Cl)ccc2O)cc1 [Compound 114]
6 | 2 | O=C(Nc1cc(Cl)ccc1OCC(c1ccccc1)c1ccccc1)c1cc(Cl)ccc1O [Compound 117]
7 | 9 | O=C(NCc1cc(C(F)(F)F)cc(C(F)(F)F)c1)c1cc(Cl)ccc1O [Compound 122]
8 | 8 | O=CNc1cc(Cl)cc(C(=O)Nc2cccc(OCCc3ccccc3)c2)c1O [Compound 124]
9 | 6 | O=C(Nc1cccc(OCCc2cccc(C(F)(F)F)c2)c1)c1cc(Cl)ccc1O [Compound 125]
10 | 6 | O=C(Nc1ccccc1OC1CCCC[C@H]1c1ccccc1)c1cc(Cl)ccc1O (some centres unmarked) [Compound 126]
11 | 2 | CCC(COc1cc(NC(=O)c2cc(Cl)ccc2O)ccc1C)c1ccccc1 (centres unmarked) [Compound 127]
12 | 2 | CCC(COc1ccc(C)c(NC(=O)c2cc(Cl)ccc2O)c1)c1ccccc1 (centres unmarked) [Compound 128]
13 | 0.8 | O=C(Nc1cc(C(F)(F)F)ccc1OCCc1ccc(Cl)cc1)c1cc(Cl)ccc1O [Compound 129]
14 | 2 | O=C(Nc1cc(C(F)(F)F)cc(Cl)c1OCCc1ccc(C(F)(F)F)cc1)c1cc(Cl)ccc1O [Compound 130]
15 | 2 | Cc1cc(C)c(OCCc2ccccc2C(F)(F)F)c(NC(=O)c2cc(Cl)ccc2O)c1 [Compound 131]
16 | 5 | Cc1oc(-c2ccccc2)nc1CCOc1ccc(Cl)cc1NC(=O)c1cc(Cl)ccc1O [Compound 132]
17 | 3 | COc1ccccc1CCOc1ccc(Cl)cc1NC(=O)c1cc(Cl)ccc1O [Compound 133]
18 | 0.9 | O=C(Nc1cc(C(F)(F)F)ccc1OCCc1ccccc1C(F)(F)F)c1cc(Cl)ccc1O [Compound 134]
19 | 0.8 | Cc1cc(C)c(CCOc2ccc(C(F)(F)F)cc2NC(=O)c2cc(Cl)ccc2O)c(C)c1 [Compound 135]
20 | 1 | Cc1cc(OCCc2ccccc2C(F)(F)F)c(NC(=O)c2cc(Cl)ccc2O)cc1Cl [Compound 136]
21 | 5 | O=C(Nc1cccc(Cl)c1OCCc1ccccc1C(F)(F)F)c1cc(Cl)ccc1O [Compound 137]
22 | 6 | O=C(Nc1cccc(OCCc2ccccc2C(F)(F)F)c1)c1cc(Cl)ccc1O [Compound 138]
23 | 3 | N#Cc1ccc(OCCc2ccccc2C(F)(F)F)c(NC(=O)c2cc(Cl)ccc2O)c1 [Compound 140]

Row | EC50 [µM] | SMILES
24 | 1 | O=C(Nc1cc(C(F)(F)F)ccc1OCCCc1ccccc1)c1cc(Cl)ccc1O [Compound 141]
25 | 3 | Cc1ccc(OCCc2ccccc2C(F)(F)F)c(NC(=O)c2cc(Cl)ccc2O)c1 [Compound 142]
26 | 14 | O=C(NCCc1cccc(OCCc2ccccc2)c1)c1cc(Cl)ccc1O [Compound 143]
27 | 17 | Cc1cccc(-c2cccc(CNC(=O)c3cc(Cl)ccc3O)c2)c1 [Compound 145]
28 | 6 | COc1ccc(OCCc2ccccc2)c(NC(=O)c2cc(Cl)ccc2O)c1 [Compound 147]
29 | 4 | Cc1ccc(OCCc2ccccc2)c(NC(=O)c2cc(Cl)ccc2O)c1 [Compound 149]
30 | 6 | Cc1ccc(NC(=O)c2cc(Cl)ccc2O)c(OCCc2ccccc2)c1 [Compound 150]
31 | 7 | N#Cc1ccc(OCCc2ccccc2)c(NC(=O)c2cc(Cl)ccc2O)c1 [Compound 152]
32 | 1 | Cc1cc(OCCc2ccccc2)c(NC(=O)c2cc(Cl)ccc2O)cc1Cl [Compound 153]
33 | 4 | O=C(Nc1cccc(Cl)c1OCCc1ccccc1)c1cc(Cl)ccc1O [Compound 154]
34 | 0.4 | O=C(Nc1cc(C(F)(F)F)ccc1OCCc1cccc(C(F)(F)F)c1)c1cc(Cl)ccc1O [Compound 155]
35 | 16 | O=C(Nc1ccc(OCCc2ccccc2)cc1C(F)(F)F)c1cc(Cl)ccc1O [Compound 156]
36 | 2 | Cc1ccc(OCCc2cccc(C(F)(F)F)c2)c(NC(=O)c2cc(Cl)ccc2O)c1 [Compound 157]
37 | 2 | O=C(Nc1cccc(Cl)c1OCCc1cccc(C(F)(F)F)c1)c1cc(Cl)ccc1O [Compound 158]
38 | 2 | Cc1cc(C)c(OCCc2cccc(C(F)(F)F)c2)c(NC(=O)c2cc(Cl)ccc2O)c1 [Compound 159]
39 | 0.7 | O=C(Nc1cc(C(F)(F)F)ccc1OCCc1ccc(C(F)(F)F)cc1)c1cc(Cl)ccc1O [Compound 160]
40 | 1 | O=C(Nc1cc(Cl)ccc1OCCc1ccc(OC(F)(F)F)cc1)c1cc(Cl)ccc1O [Compound 161]
41 | 0.9 | O=C(Nc1cc(C(F)(F)F)ccc1OCCc1ccc(OC(F)(F)F)cc1)c1cc(Cl)ccc1O [Compound 162]
42 | 2 | O=C(Nc1cc(Cl)cc(Cl)c1OCCc1ccc(CC(F)(F)F)cc1)c1cc(Cl)ccc1O [Compound 163]
43 | 1 | Cc1cc(OCCc2ccc(CC(F)(F)F)cc2)c(NC(=O)c2cc(Cl)ccc2O)cc1Cl [Compound 164]
44 | 10 | O=C(Nc1cc(Cl)ccc1OCCc1ccccc1)c1cnc2cc(C(F)(F)F)ccc2c1O [Compound 166]
45 | 6 | O=C(Nc1cc(Cl)ccc1OCCc1ccccc1C(F)(F)F)c1cnc2cc(C(F)(F)F)ccc2c1O [Compound 167]
46 | 17 | O=C(Nc1ccccc1)c1cc(Cl)ccc1O [Compound 168]

Row | EC50 [µM] | SMILES
47 | 4 | COc1ccc(OCCc2ccccc2C(F)(F)F)c(NC(=O)c2cc(Cl)ccc2O)c1 [Compound 170]
48 | 5 | Cc1ccc(NC(=O)c2cc(Cl)ccc2O)c(OCCc2ccccc2C(F)(F)F)c1 [Compound 171]
49 | 3 | O=C(Nc1cc(Cl)cc(Cl)c1OCCc1ccccc1C(F)(F)F)c1cc(Cl)ccc1O [Compound 172]
50 | 11 | Cc1cccc(OCCc2ccccc2C(F)(F)F)c1NC(=O)c1cc(Cl)ccc1O [Compound 173]
51 | 11 | CC(C)c1ccccc1-c1cccc(CNC(=O)c2cc(Cl)ccc2O)c1 [Compound 174]
52 | 14 | CC(C)c1cccc(-c2cccc(CNC(=O)c3cc(Cl)ccc3O)c2)c1 [Compound 175]
53 | 12 | COc1ccccc1CCOc1cccc(NC(=O)c2ccc(F)cc2O)c1 [Compound 180]
54 | 23 | COc1ccc(C(=O)Nc2cccc(OCCc3ccccc3OC)c2)c(O)c1 [Compound 182]
55 | 19 | COc1ccccc1CCOc1cccc(NC(=O)c2cc(F)ccc2O)c1 [Compound 183]
56 | 15 | O=C(Nc1cccc(OCCc2ccccc2)c1)c1cc(F)ccc1O [Compound 184]
57 | 32 | COc1ccc(C(=O)Nc2cccc(OCCc3ccccc3)c2)c(O)c1 [Compound 185]
58 | 22 | COc1ccc(O)c(C(=O)Nc2cccc(OCCc3ccccc3OC)c2)c1 [Compound 186]
59 | 30 | COc1ccc(O)c(C(=O)Nc2cccc(OCCc3ccccc3)c2)c1 [Compound 187]
60 | 30 | O=C(NCc1cccc(-c2ccccc2)c1)c1ccc(F)cc1O [Compound 189]
61 | 35 | O=C(NCc1cccc(-c2ccccc2)c1)c1cc(F)ccc1O [Compound 190]
62 | 15 | O=C(Nc1cccc(OCCc2ccccc2)c1)c1ccc(F)cc1O [Compound 191]
63 | 30 | O=C(NCc1cccc(-c2ccccc2)c1)c1cc(Br)ccc1O [Compound 192]
64 | 7 | O=C(Nc1cccc(OCCc2ccccc2)c1)c1cc(Br)ccc1O [Compound 193]
65 | 9 | COc1ccccc1CCOc1cccc(NC(=O)c2cc(Br)ccc2O)c1 [Compound 194]
66 | 26 | O=C(Nc1cccc(OCCc2ccccc2)c1)c1ccccc1O [Compound 197]
67 | 21 | COc1ccccc1CCOc1cccc(NC(=O)c2ccccc2O)c1 [Compound 198]
68 | 37 | CC(C)c1cc(C(=O)Nc2cccc(OCCc3ccccc3)c2)c(O)c(C(C)C)c1 [Compound 200]
69 | 33 | CC(C)c1cccc(C(=O)Nc2cccc(OCCc3ccccc3)c2)c1O [Compound 201]

Row | SMILES | EC50 [µM]
70 | O=C(Nc1cc(C(F)(F)F)cc(C(F)(F)F)c1)c1cc(Cl)ccc1O [Compound 169] | 2

same assay, conditions: Homo sapiens; LNCaP cells; flagged "Estimated": based on actual data at different concentrations

Row | EC50 [µM] | SMILES
71 | 30 | O=C(NCc1ccccc1OCCc1ccccc1)c1cc(Cl)ccc1O [Compound 116]
72 | 30 | O=C(NCCc1ccccc1Oc1ccccc1)c1cc(Cl)ccc1O [Compound 118]
73 | 20 | O=C(NCCc1ccccc1OCc1ccccc1)c1cc(Cl)ccc1O [Compound 119]
74 | 18 | Cc1c(CNC(=O)c2cc(Cl)ccc2O)cccc1-c1ccccc1 [Compound 120]
75 | 30 | O=C(NCc1cccc(C(F)(F)F)c1)c1cc(Cl)ccc1O [Compound 121]
76 | 30 | O=C(Nc1cccc(OCCc2ccccc2)c1)c1cc(Cl)cc([N+](=O)[O-])c1O [Compound 123]
77 | 30 | Cc1ccccc1-c1cccc(CNC(=O)c2cc(Cl)ccc2O)c1 [Compound 144]
78 | 30 | CCc1ccccc1-c1cccc(CNC(=O)c2cc(Cl)ccc2O)c1 [Compound 146]
79 | 30 | O=C(Nc1cc(NC(=O)c2cc(Cl)ccc2O)cc(C(F)(F)F)c1)c1cc(Cl)ccc1O [Compound 151]
80 | 47 | O=C(NCc1cccc(-c2ccccc2)c1)c1ccccc1O [Compound 199]
